Test results published in patent publication US20110313164A1, “LITHIUM DERIVATIVES OF PYRROLOQUINOLINE QUINONE AND PREPARATION METHOD THEREOF” (priority 2009, published 2011).

System: APP/PSI transgenic mice
Experiment: cognitive ability of APP/PSI transgenic mice (FIG. 1)
Format: in vivo
Conditions: intragastric administration, 20-week-old mice, 1.5 and 6 mg/kg of weight
Description: Intragastric administration is applied to 20-week-old mice. Wiletype is a wiletype control group; Ctrl is a transgenic control group; DNP is a […] group (1.5 mg/kg of weight); PQQLi 1.5 is a lithium pyrroloquinoline-quinone salt group (1.5 mg/kg of weight); PQQLi 6 is a lithium pyrroloquinoline-quinone group (6 mg/kg of weight). *p<0.05; ** p<0.005; NS: […].

O=C(O)c1cc(C(=O)O)c2c(n1)C(=O)C(=O)c1cc(C(=O)[O-])[nH]c1-2.[Li+] [PQQLi, 4,5-dihydroxy-1H-pyrrole[2,3-f]chinoline-2,7,9-tricarboxylic acid, lithium salt]
cognitive ability: promotes the cognitive ability
